From the supplement of paper PMC10307832

Legend:
Experiment in all cases: relative viability (nuclei count vs DMSO), 5 days (fraction); higher = more cells survive
[1] = compound: CN1CCN(c2ccc3nc(-c4c(N)c5c(F)cccc5[nH]c4=O)[nH]c3c2)CC1 [Dovitinib] + NC(=O)Nc1cc(-c2cccc(F)c2)sc1C(=O)N[C@H]1CCCNC1 [AZD7762] (partner 0.2 µM)
Outline: (§1)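 Five library-drug doses in √10 steps were combined with a fixed anchor-drug dose, or a single drug was given alone, by pin tool to lung cancer cell lines in 1536-well plates the day after seeding. Nuclei were stained and counted after 5 days. Relative viability is the nuclei count in treated wells over that in vehicle wells, taken as the median of duplicate plates.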

[2] = compound: CN1CCN(c2ccc3nc(-c4c(N)c5c(F)cccc5[nH]c4=O)[nH]c3c2)CC1 [Dovitinib] + Nc1nc2[nH]cc(CCc3ccc(C(=O)N[C@@H](CCC(=O)O)C(=O)O)cc3)c2c(=O)[nH]1 [Pemetrexed] (partner 0.2 µM)
Outline: as §1

[3] = compound: CN1CCN(c2ccc3nc(-c4c(N)c5c(F)cccc5[nH]c4=O)[nH]c3c2)CC1 [Dovitinib] + COc1cc2c(Oc3ccc(NC(=O)C4(C(=O)Nc5ccc(F)cc5)CC4)cc3F)ccnc2cc1OCCCN1CCOCC1 [Foretinib] (partner 0.25 µM)
Outline: as §1

[4] = compound: CN1CCN(c2ccc3nc(-c4c(N)c5c(F)cccc5[nH]c4=O)[nH]c3c2)CC1 [Dovitinib] + COc1cccc2cc(-c3nc([C@H]4CC[C@H](C(=O)O)CC4)n4ncnc(N)c34)[nH]c12 [OSI-027] (partner 0.5 µM)
Outline: as §1

| Cell Line | relative viability ([1]; first compound 0.02 µM) | relative viability ([1]; first compound 0.06325 µM) | relative viability ([1]; first compound 0.2 µM) | relative viability ([1]; first compound 0.6325 µM) | relative viability ([1]; first compound 2 µM) | relative viability ([2]; first compound 0.02 µM) | relative viability ([2]; first compound 0.06325 µM) | relative viability ([2]; first compound 0.2 µM) | relative viability ([2]; first compound 0.6325 µM) | relative viability ([2]; first compound 2 µM) | relative viability ([3]; first compound 0.02 µM) | relative viability ([3]; first compound 0.06325 µM) | relative viability ([3]; first compound 0.2 µM) | relative viability ([3]; first compound 0.6325 µM) | relative viability ([3]; first compound 2 µM) | relative viability ([4]; first compound 0.02 µM) | relative viability ([4]; first compound 0.06325 µM) | relative viability ([4]; first compound 0.2 µM) | relative viability ([4]; first compound 0.6325 µM) | relative viability ([4]; first compound 2 µM) |
| --- | --- | --- | --- | --- | --- | --- | --- | --- | --- | --- | --- | --- | --- | --- | --- | --- | --- | --- | --- | --- |
| HARA | 0.334 | 0.257 | 0.381 | 0.211 | 0.315 | 0.256 | 0.254 | 0.233 | 0.241 | 0.258 | 0.969 | 0.765 | 0.846 | 0.873 | 0.905 | 0.628 | 0.438 | 0.456 | 0.538 | 0.474 |
| NCI-H2126 | 0.982 | 1.04 | 1.03 | 1.04 | 1 | 0.734 | 0.653 | 0.676 | 0.705 | 0.711 | 1.17 |  | 1.3 | 1.14 | 1.15 | 0.74 |  | 0.855 | 0.699 | 0.638 |
| LXF-289 | 1.07 | 1.06 | 1.07 | 1.13 | 1.05 | 0.883 | 0.893 | 0.864 | 0.962 | 0.894 | 0.99 | 1.01 | 0.882 | 1.02 | 0.953 | 0.771 | 0.813 | 0.952 | 0.873 | 0.744 |
| NCI-H460 | 0.611 | 0.662 | 0.54 | 0.61 | 0.556 | 0.0606 | 0.0581 | 0.0649 | 0.0683 | 0.0626 | 1 | 1.03 | 1.12 | 0.918 | 1.03 | 0.587 | 0.842 | 0.708 | 0.708 | 0.721 |
| NCI-H1395 | 0.425 | 0.366 | 0.435 | 0.374 | 0.398 | 0.91 | 0.807 | 0.933 | 0.911 | 1.02 | 1.07 | 1.12 | 0.935 | 0.947 | 1.02 | 0.637 | 0.706 | 0.682 | 0.651 | 0.672 |
| NCI-H2170 | 0.773 | 1.02 | 0.928 | 0.857 | 0.883 | 0.267 | 0.33 | 0.267 | 0.265 | 0.281 | 0.992 | 0.986 | 1.02 | 0.983 | 0.974 | 0.572 | 0.711 | 0.718 | 0.708 | 0.723 |
